Data taken from patent US8993718B2, “Methods and compositions for detecting and modulating O-glycosylation” (President and Fellows of Harvard College, priority 2007, dated 2015).
Non-standard residues stand in square brackets, D forms with d. Primed or numbered codes have the meaning given here. No end group written: not given here. *: point of attachment. FITC = O=C1OC2(c3ccc(O)cc3Oc3cc(O)ccc32)c2ccc(NC(=S)*)cc21; Aha′ = not defined here

Biological target: T1, O-Linked N-acetylglucosaminyltransferase (OGT) (Homo sapiens, UniProt O15294)
T1 sequence (O15294 1-1046): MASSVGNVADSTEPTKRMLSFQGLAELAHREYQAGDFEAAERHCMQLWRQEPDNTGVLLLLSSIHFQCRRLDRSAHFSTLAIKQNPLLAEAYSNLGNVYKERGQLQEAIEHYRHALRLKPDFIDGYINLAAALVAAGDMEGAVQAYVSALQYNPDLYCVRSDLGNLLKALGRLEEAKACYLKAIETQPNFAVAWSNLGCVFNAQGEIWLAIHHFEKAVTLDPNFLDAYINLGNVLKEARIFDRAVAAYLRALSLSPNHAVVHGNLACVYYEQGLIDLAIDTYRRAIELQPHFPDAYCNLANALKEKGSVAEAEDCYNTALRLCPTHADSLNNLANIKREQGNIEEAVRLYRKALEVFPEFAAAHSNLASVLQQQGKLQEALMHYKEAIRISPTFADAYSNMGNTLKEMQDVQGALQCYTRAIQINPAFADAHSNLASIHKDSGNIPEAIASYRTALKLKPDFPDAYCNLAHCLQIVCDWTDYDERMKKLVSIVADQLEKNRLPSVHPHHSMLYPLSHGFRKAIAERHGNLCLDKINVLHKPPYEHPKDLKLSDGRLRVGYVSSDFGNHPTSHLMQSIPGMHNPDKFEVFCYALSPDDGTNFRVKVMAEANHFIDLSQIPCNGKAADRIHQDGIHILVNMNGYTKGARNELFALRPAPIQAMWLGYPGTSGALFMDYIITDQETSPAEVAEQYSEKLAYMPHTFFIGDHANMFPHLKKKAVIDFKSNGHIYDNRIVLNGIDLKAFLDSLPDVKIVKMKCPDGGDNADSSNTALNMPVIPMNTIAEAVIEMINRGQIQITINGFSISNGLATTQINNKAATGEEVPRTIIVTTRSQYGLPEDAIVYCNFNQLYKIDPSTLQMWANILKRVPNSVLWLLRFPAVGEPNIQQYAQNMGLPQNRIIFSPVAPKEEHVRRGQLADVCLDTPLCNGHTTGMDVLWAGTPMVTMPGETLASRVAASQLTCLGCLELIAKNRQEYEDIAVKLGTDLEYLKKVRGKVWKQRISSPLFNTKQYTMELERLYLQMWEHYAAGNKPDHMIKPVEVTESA
Assay: Glycosylation of CK2-derived polypeptide substrates by OGT, quantified by LC/MS
Assay type: biochemical
Conditions: OGT, LC/MS peak integration at 445 nm; relative to wt polypeptide 4.1
Procedure: To address the first requirement, a panel of polypeptides was synthesized based on a truncated version of the CKII polypeptide [CKII peptide PGGSTPVSSNAMM (SEQ ID NO:20)]. The polypeptide was modified from the native sequence in several ways. First, a fluorescein was installed on the N-terminus during synthesis. Second, a lysine was added to the C-terminus so that a second dye or quencher could be installed by reaction with the appropriate N-hydroxysuccinimidyl ester. These modifications allowed two different FRET approaches. The first approach required the installation of a coumarin derivative on the polypeptide. The second required installation of a quencher molecule, which measured total fluorescence intensity. (See Examples 2 and 3). Finally, the residues on either side of the glycosylated serine of the truncated CK2 polypeptide were changed to phenylalanine, leucine or arginine to introduce proteolytic cleavage sites for common proteases (such as trypsin, chymotrypsin and thermolysin) that were not present in the native sequence. It was reasoned that cleavage adjacent to the glycosylation site would yield the largest difference in the rate of proteolysis between glycosylated and native polypeptides. This series of polypeptides was synthesized and screened for OGT activity using by LC/MS. Peak integration (measured at 445 nm) was used to quantitative products and reactants and mass spectrometry was used to confirm peak identity. The results are presented in Table 2 and some of the peptides (peptide 4.1, 4.4, and 4.5 top to bottom) are illustrated in FIG. 2.
All polypeptides were purchased from Tufts University core facility (Boston, Mass.). The mass of crude product was verified and the polypeptides were labeled under the following conditions: Polypeptide was dissolved in 250 mM NaHCO3 buffer, pH 8.2 at a 5 mM concentration and the appropriate NHS-Ester (0.5 eq) was dissolved in DMSO (a volume of 1/10 of the aqueous buffer was used). The DMSO solution was quickly added to the peptide and the reaction proceeded at room temperature for 30 minutes. This was repeated 2 more times (four more times for polypeptide 4.10). The reaction was monitored by LC/MS. LCMS conditions for polypeptides 4.1-4.8—Agilent Eclipse 5 μm XD8-C8 column, 0→100% CH3CN+0.1% formic acid over 20 minutes. LCMS conditions for polypeptides 4.9-4.10—Agilent Eclipse 5 μm XD8-C8 column, 0→100% CH3CN+0.1% NH4OH over 20 minutes. Each polypeptide was purified by preparative HPLC. Conditions for polypeptides 4.1-4.8 were: —Phenomonex Luna C18 5 μm column, 0→100% CH3CN+0.1% TFA over 40 minutes. Conditions for polypeptides 4.9-4.10 were: —Phenomonex Luna C18 5 μm column, 0→100% CH3CN+0.1% NH4OH over 40 minutes. Products were confirmed by LC/MS. Preparative Glycosylation of Labeled Polypeptides: Purified FRET labeled polypeptides were added (20-50 μM final concentration) to assay buffer (50 mM Tris, 20 mM CaCl2, 0.05% Tween-20, 0.05% NP-40, pH=7.8), 200 μM UDP-GlcNAc, 0.05 units of alkaline phosphatase, and 5 μM OGT. Reactions were monitored using LCMS: conditions for polypeptides 4.1-4.8—Agilent Eclipse 5 μm XD8-C8 column, 10→60% CH3CN+0.1% formic acid over 20 minutes. LCMS conditions for polypeptides 4.9-4.10—Agilent Eclipse 5 μm XD8-C8 column, 10→60% CH3CN+0.1% NH4OH over 20 minutes, and when complete were purified using the same column and conditions. Polypeptides 4.1-4.8 were quantitated by absorption at 492 nm using an extinction coefficient of 86,000 cm^−1M^−1; polypeptide 4.9 was quantitated by absorption at 530 nm using an extinction coefficient of 26,000 cm^−1M^−1; polypeptide 4.10 was quantitated by absorption at 530 nm using an extinction coefficient of 52,000 cm^−1M^−1. Fluorescence Resonance Energy Transfer (FRET)-Peptide Approach #1

| Compound | Relative rate of glycosylation |
| --- | --- |
| FITC(Aha)STPVSFANMK ({FITC}-[Aha′]STPVSFANMK; reading uncertain; also: printed as FITC(Aha)STPVSFANMK) [Polypeptide 4.4] | 0.4 |
| FITC(Aha)STPFSSANMK ({FITC}-[Aha′]STPFSSANMK; reading uncertain; also: printed as FITC(Aha)STPFSSANMK) [Polypeptide 4.2] | 0.15 |
| FITC(Aha)STPRSSANMK ({FITC}-[Aha′]STPRSSANMK; reading uncertain; also: printed as FITC(Aha)STPRSSANMK) [Polypeptide 4.3] | 0 |
| FITC(Aha)STPVSRANMK ({FITC}-[Aha′]STPVSRANMK; reading uncertain; also: printed as FITC(Aha)STPVSRANMK) [Polypeptide 4.5] | 0.7 |

Same assay, conditions: more soluble variant vs earlier polypeptides

| Compound | increase of glycosylation rate |
| --- | --- |
| FITC(Aha)STPVSRANMK(QXL ™ 520)R K(QXL ™ 520) ({FITC}-[Aha′]STPVSRANMK(QXL 520)RK(QXL 520); reading uncertain; also: printed as FITC(Aha)STPVSRANMK(QXL ™ 520)R K(QXL ™ 520)) [Polypeptide 4.10] | 2-3 fold |

Biological target: T2, sOGT (Homo sapiens, UniProt O15294)
T2 sequence (O15294 1-665 isoform O15294-4): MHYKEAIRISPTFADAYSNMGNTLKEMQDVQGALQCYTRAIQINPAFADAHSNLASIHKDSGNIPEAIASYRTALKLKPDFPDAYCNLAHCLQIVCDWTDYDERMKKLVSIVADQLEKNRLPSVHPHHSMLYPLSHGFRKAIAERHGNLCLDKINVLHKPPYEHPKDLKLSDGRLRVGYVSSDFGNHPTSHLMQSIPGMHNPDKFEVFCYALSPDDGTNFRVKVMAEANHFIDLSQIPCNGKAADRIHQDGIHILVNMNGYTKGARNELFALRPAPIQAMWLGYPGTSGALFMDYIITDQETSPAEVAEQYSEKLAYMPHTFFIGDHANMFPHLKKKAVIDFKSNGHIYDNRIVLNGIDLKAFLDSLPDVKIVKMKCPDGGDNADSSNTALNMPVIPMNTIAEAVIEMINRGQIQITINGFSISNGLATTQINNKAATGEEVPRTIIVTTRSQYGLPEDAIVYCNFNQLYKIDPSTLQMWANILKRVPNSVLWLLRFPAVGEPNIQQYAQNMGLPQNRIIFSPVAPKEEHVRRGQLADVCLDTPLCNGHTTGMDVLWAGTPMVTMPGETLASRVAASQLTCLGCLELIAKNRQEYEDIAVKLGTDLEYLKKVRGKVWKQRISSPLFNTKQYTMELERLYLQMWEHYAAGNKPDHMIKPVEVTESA
Assay: High-throughput kinetic protease-protection screen with polypeptide 4.10
Assay type: biochemical
Conditions: 25 μg/mL (~70 μM); hit = <70% activity in one duplicate and <80% in the second
Description: With the final assay conditions established, 124,226 compounds were screened in duplicate at the ICCB (Harvard University, Boston, Mass.) over two days; the highest throughput of any assay performed at the ICCB screening facility. Small molecule libraries from several commercial vendors were screened as well as known bioactive compounds, natural product extracts, and molecules made using diversity oriented synthetic approaches. Included in this set were 52,026 of the 64,416 compounds screened using a donor displacement method such as that described in PCT application PCT/US2007/008806, which was filed Apr. 11, 2007. The vast majority compounds screened were small molecules (average MW ˜350) that were optimized to have favorable physico-chemical properties such as solubility, decreased toxicity, and increased stability. All of the commercial compounds at the ICCB are plated at a stock concentration of 5 mg/mL, which, given a 20 μL reaction volume, corresponds to a 25 μg/mL inhibitor concentration in each well. The format of most compound plates at the ICCB has the last two columns of each 384-well plate empty. This allowed each assay plate to have column of negative controls (run without inhibitor) and column of positive controls (run without sOGT), which allowed a Z′ to be calculated for each plate. These values typically ranged from 0.7-0.8.
Data workup began by calculating the average positive and negative control values independently for both duplicates of each plate. Using the linear relationship between percent glycosylation and fluorescence shown above (FIG. 7), the percent glycosylation was calculated for each well, with 0% corresponding to the average value of the positive controls and 100% corresponding to the average value of the negative controls. In actuality the range is roughly […] glycosylated polypeptide since the reaction was not allowed to proceed to completion. However, this simplification was employed to facilitate the comparison of different sets of plates. There were remarkably few compounds that reproducibly appeared to inhibit OGT, which enabled hits to be selected using a very high cutoff. Compounds with <70% activity in one duplicate and <80% activity in the second duplicate were scored as hits. Even using this lax criterion, the total unfiltered hit set only numbered 84, corresponding to a hit rate of 0.065%.
384-well plates (Costar #3710) were filled using a liquid handling robot with 10 μL of a mixture of 8 μM polypeptide 4.10, 40 μM UDP-GlcNAc, and buffer (50 mM Tris, 20 mM CaCl2, 0.05% Tween-20, 0.05% NP-40, pH=7.8, 500 μM tris(hydroxypropyl)phosphine). Compound libraries were then transferred to the assay plates using a 100 nL pin array and 10 μL of 500 nM sOGT in buffer (50 mM Tris, 20 mM CaCl2, 0.05% Tween-20, 0.05% NP-40, pH=7.8, 500 μM tris(hydroxypropyl)phosphine) was added using a liquid handling robot. The compounds were assayed at a concentration of 25 μg/mL or ˜70 μM, assuming an average compound MW of 350. After 2-3 hours, 20 μL of a 20 ng/mL proteinase K solution in buffer (50 mM Tris, 20 mM CaCl2, 0.05% Tween-20, 0.05% NP-40, pH=7.8) was added and allowed to react for 30-90 minutes. The plates were read using a Perkin-Elmer Envision® microplate reader with a 480 nm excitation filter and 530 nm emission filter.

| Compound | hit in the high throughput screen |
| --- | --- |
| Cc1cc(C)c2c(C(=O)O)cc(O)nc2c1 [Compound 6] | singleton hits |
| CSC(SC)=C(C#N)S(=O)(=O)c1ccc(Cl)cc1 [Compound 3] | hits |
| O=C(O)[C@H](Cc1ccccc1)N1Cc2ccccc2C1=O [Compound 17] | singleton hits |
| N#CSc1cc(SC#N)c(N)nc1N [Compound 4] | hits |
| Fc1ccc(NC2=NCCN2)cc1 [Compound 21] | singleton hits |
| O=C1OCc2ccccc21 [Compound 16] | singleton hits |
| COc1cccc(/N=C\c2c[nH]c3ccccc23)c1 [Compound 5] | hits |
| CCn1cc(C(=O)N2CCOCC2)c(=O)c2cc(S(=O)(=O)N(C)C)ccc21 [Compound 18] | singleton hits |
| Clc1cccc(C(c2nnc(-c3ccccc3)o2)N2CCN(c3ccccc3)CC2)c1 (stereo not shown) [Compound 15] | singleton hits |
| Cl.Cl.N=C(N)c1cccc(NC(=O)Nc2cccc(C(=N)N)c2)c1 [Compound 10] | singleton hits |
| O=C(/C=C/c1cccs1)Nc1scc(-c2ccccc2)c1C(=O)O [Compound 2] | singleton hits |
